Assay results reported in patent US20100003287A1, “Compositions and Methods Relating to Treatment of Cancer and Infectious Diseases” (THE PROVOST, FELLOWS AND SCHOLARS OF THE COLL. OF THE HOLY …, priority 2005, published 2010).

Key:
B16 tumour cells [1] = experiment: Direct tumour therapy with CpG and Celecoxib; format: in vivo, C57BL/6 mice; conditions: CpG 20 μg, Celecoxib 500 μg or both s.c. at tumour site, days 3, 5 and 7
Protocol: C57BL/6 mice were challenged with 2×10^5 tumour cells s.c. and injected s.c. on days 3, 5 and 7 with either CpG (10 or 20 μg), the Cox-2 inhibitor Celecoxib (100 or 500 μg) or a combination of both at the tumour site. Mice were routinely monitored for tumour growth and survival. Tumour size was measured in two dimensions by callipers and determined by the following formula: (width^2×length)×π/6 where width is the lesser value. Mice were killed when tumour a length measured greater than 15 mm.
Mice were routinely monitored for tumour growth (FIG. 19).
Tumour volumes were routinely monitored (FIG. 20).
C57BL/6 mice were challenged with 2×10^5 tumour cells s.c. and injected s.c. on days 3, 5 and 7 with either CpG (20 μg), the Cox-2 inhibitor Celecoxib (500 μg) or a combination of both at the tumour site. Mice were routinely monitored for tumours and survival (FIG. 21).

bone marrow-derived DC [2] = experiment: CpG-stimulated DC with Cox-2 inhibitor NS-398, cytokine mRNA RT-PCR; format: cell-based, C57BL/6 mice
[3] = tested on: IFN-gamma- and IL-10-secreting T cells; experiment: DC transfer experiment (KLH, CpG and inhibitors), T cell responses in vivo; parameters: species or system C57BL/6 mice; conditions: DC with KLH 5 μg, CpG 5 μg and inhibitors (NS-398 5 μM, SB203580 1 μM, U0126 5 μM) into footpad; day 5 cells restimulated with KLH
Protocol: 2.5×10^5 treated cells were injected into each footpad. Popliteal lymph nodes and spleens were removed after 5 days, and single cell suspensions were restimulated with KLH (2, 10, 50 μg/ml). S/N were removed after 3 days, and aliquots were measured for IFN-gamma and IL-10 by ELISA.
2.5×10^5 treated cells were injected into each footpad of 57BL-6 mice. Popliteal lymph nodes and spleens were removed after 5 days, and single cell suspensions were restimulated with KLH (2, 10, 50 μg/ml). Supernatants were removed after 3 days, and IFN-gamma and IL-10 concentrations quantified by ELISA (FIG. 13).

[4] = tested on: PGE2 production by dendritic cells; experiment: TLR agonist induced PGE2 production by DC (ELISA); format: cell-based; conditions: 24 hours
Protocol: Bone marrow-derived dendritic cells (DC) were stimulated in vitro with CpG (5 μg) or the ERK inhibitor, U0126 (5 μM), or both for 24 hours. Supernatants were removed and PGE2 concentrations determined by ELISA. **p<0.01 CpG+p38 inhibitor versus CpG by ANOVA (FIG. 25).
Bone marrow-derived DC were stimulated with CpG (5 μg) alone or in the presence of the Cox-2 inhibitor, NS-398. After 24 hours, supernatants were removed and concentrations of PGE2 (FIG. 26(a)) were determined by ELISA. *p<0.05 CpG+p38 inhibitor versus CpG by ANOVA.
Supernatants were removed and PGE2 concentrations determined by ELISA. *p<0.05 CpG+p38 inhibitor versus CpG by ANOVA (FIG. 27).

CD80 on CD11c+ DC = experiment: CD80 expression on DC (cytofluorometric analysis); format: cell-based; conditions: HSP70 vaccine 5 mg/ml, NS398 5 mM, 24 hours, gated on CD11c+
Protocol: Bone marrow derived DC were incubated with medium only (Control), HSP70 vaccine (5 mg/ml), the Cox-2 inhibitor NS398 (5 mM), HSP70 and Cox-2 inhibitor or LPS (10 ng/ml). After 24 hours cells were labelled with anti-CD80 and CD11C antibodies and cytofluorometric analysis performed. Results represent mean fluorescence intensity (MFI) on cells that were gated on the CD11c+ DC population (FIG. 24).

bone marrow-derived DC [5] = experiment: CpG-stimulated DC with Cox-2 inhibitor NS-398, cytokine ELISA; format: cell-based, C57BL/6 mice
Protocol: (§1) Bone-marrow derived immature DC (BMDC) were generated by cultivation of extracted bone marrow cells with GM-CSF (40 ng/ml) for 10 days. BMDC from either BALB/c or C57BL/6 mice were incubated with 1 ng/ml-10 μg/ml of the TLR agonists, Pam3CSK4, Zymosan, LPS, Flagellin, PolylC, CpG-OCDN or medium only.

B16 tumour cells [6] = experiment: Therapeutic DC vaccine pulsed with B16 cells with or without CpG and p38 inhibitor; format: in vivo, C57BL/6 mice; conditions: for protective efficacy of tumour vaccine (tumour volumes): 5×10^5 DC days 3, 10 and 17
Excerpt: Tumour growth was routinely monitored. Results represent tumour volumes for individual mice (FIG. 29).
Tumour growth was routinely monitored. Results represent tumour volumes for individual mice (FIG. 30).
Mice were routinely monitored for survival. Numbers in parentheses represent statistical difference versus control group (FIG. 31).

bone marrow-derived DC [7] = experiment: Cytokines from DC treated with B16 tumour vaccine, CpG and p38 inhibitor (ELISA); format: cell-based; conditions: DC with heat shocked and irradiated B16 cells 4 hours, CpG 5 μg, SB 203580 5 μM, 24 hours
Protocol: Supernatants were removed after 24 hours and IL-10, IL-12p40, IL-12p70 and IL-23 concentrations were determined by ELISA. *p<0.05; ***p<0.0001, CpG+p38 inhibitor versus GpG by ANOVA.

spleen mononuclear cells = experiment: Spleen cell IFN-gamma and IL-10 after acellular pertussis vaccination; format: in vivo, mice; conditions: added to acellular pertussis vaccine with CpG 5 μg, SB203580 50 μM
[8] = tested on: CD4+ T cells from D011.10 OVA-TCR Tg mice; experiment: In vitro activation of OVA-TCR T cells with modulated DC; format: cell-based, BALB/c mice; conditions: DC pulsed with OVA peptide 5 μg, CpG 10 μg alone or with SB203580 1 or 5 μM, 24 h; T cells:DC 10:1
Protocol: DC from BALB/c were incubated with OVA Class II peptide (5 μg). […] D011.10 OVA-TCR T cells were then added to the BMDC (10:1). Supernatants were removed after 3 and 11 days, and aliquots were measured for IL-10-and IFN-gamma by ELISA.
Bone marrow-derived DC from BALB/c were incubated with OVA Class II peptide (5 μg). […] Purified CD4+ T cells from D011.10 OVA-TCR Tg mice were stimulated with the DC (10:1) and supernatants were removed 3 days after antigen stimulation and IL-10 and IFNgamma quantified by ELISA (FIG. 12).

Bordetella pertussis = experiment: Acellular pertussis vaccine, B. pertussis aerosol challenge, lung CFU counts; format: in vivo; conditions: mice, i.p. 0 and 4 weeks, 0.02 human dose vaccine, CpG 5 μg, SB203580 50 μM; aerosol challenge 2 weeks later
bone marrow-derived DC [9] = conditions: for IL-10 production from CpG-ODN- or LPS-stimulated DC: inhibitor 1 h (U0126 1.25-5 μM, SB203580 0.1-10 μM) before CpG-ODN 5 μg/ml or LPS 100 ng/ml, 24 h; for IL-12p70 production from TLR ligand-stimulated DC: inhibitor pre-incubation, LPS or CpG-ODN
Protocol: as §1
DC were pre-incubated for 1 h with the MEK 1/2 inhibitor (U0126) and then incubated for 15 min with medium only or with Pam3Cys, Zymosan, LPS, Flagellin, or CpG-ODN (1 or 5 μg/ml). […] DC were stimulated with medium only (0) or for 0.5, 1, 2, 4, 8 or 12 h with LPS (100 ng/ml). […] Cells treated with DMSO were used as negative controls.
Superntants were removed, and aliquots was measured for IL-10, IL-12p70 and IL-6 by ELISA (FIG. 11).

IL-1 beta in lungs = experiment: Lung IL-1 beta after B. pertussis challenge of immunized mice; format: in vivo; conditions: added to acellular pertussis vaccine with CpG 5 μg; SB203580 50 μM; 4 hours after challenge
ERK = format: cell-based, mice
Protocol: In certain experiments, the ERK or p38 inhibitors were added 1 hr before the TLR ligands. Cell lysates were resolved by SDS-PAGE, transferred to nitrocellulose membranes and blotted with antibodies specific for phospho-p38 (pp38; Cell Signal Technology, Mass., USA), or phospho-ERK (pERK; Santa Cruz Biotechnologies, USA) and a horseradish peroxidase-linked secondary antibody. The nitrocellulose was stripped and probed with antibodies specific for total p38 or total ERK.

[10] = tested on: immature bone marrow-derived DC; experiment: DC activation by TLR ligands, cytokine ELISA; conditions: 1 ng/ml-10 μg/ml TLR ligand, 24 h
Protocol: After 24 h, supernatants were removed and IL-10, IL-12p40 and IL-12p70 concentrations determined by ELISA. NT, not tested (FIG. 9).

[11] = tested on: draining lymph node cells; experiment: Immunisation with KLH and TLR ligands, antigen-specific cytokine production by lymph node cells (ELISA); format: in vivo, BALB/c mice; conditions: s.c. KLH 5 μg alone or with adjuvant; lymph node cells day 7, KLH 50 μg/ml, 3 days
[12] = CpG 10 μg alone or with NS-398 1 or 10 μM, 24 h
[13] = CpG 10 μg alone or with various concentrations of NS-398, 24 h
[14] = CpG 5 μg with inhibitor (U0126 5 μM or NS-398)

## Cc1ccc(-c2cc(C(F)(F)F)nn2-c2ccc(S(N)(=O)=O)cc2)cc1 [Celecoxib]
B16 tumour cells [1]
  mice survived: 20%

## CS(=O)(=O)Nc1ccc([N+](=O)[O-])cc1OC1CCCCC1 [NS-398]
Bone marrow-derived DC [2]; [12]
  IL-12p35 mRNA expression in DC: enhanced
  IL-12p40 mRNA expression in DC: enhanced
Bone marrow-derived DC [2]; [13]
  IL-27p28 mRNA expression in DC: enhanced
Bone marrow-derived DC [2]; CpG 10 μg with NS-398, 24 h
  CpG-induced IL-10 mRNA expression in DC: suppressed
[3]
  induction of IFN-gamma-secreting T cells (Th1) in vivo: enhanced
  induction of IL-10 secreting T cells in vivo: suppressing
[4]; [14]
  CpG-induced PGE2 production by dendritic cells: reverses
CD80 on CD11c+ DC
  CD80 expression (mean fluorescence intensity): neither Cox-2 nor HSP70 alone enhanced
Bone marrow-derived DC [5]; CpG 5 μg with NS-398, 24 h
  CpG-induced IL-10 production by dendritic cells: reverses
Bone marrow-derived DC [5]; [13]
  IL-10 production by DC: suppressed
  IL-12p40 (IL-12) production by DC: enhanced

## C[S+]([O-])c1ccc(-c2nc(-c3ccncc3)c(-c3ccc(F)cc3)[nH]2)cc1 (stereo not shown) [SB203580]
B16 tumour cells [6]; DC activated with killed whole B16 cells alone or with CpG 5 μg, SB 203580 5 μM, days 3, 10 and 17
  survival of mice: enhances survival
B16 tumour cells [6]; DC activated with killed whole B16 cells and CpG 5 μg, SB203580 5 μM
  protective efficacy of tumour vaccine (tumour volumes): enhances
B16 tumour cells [6]; DC activated with killed whole B16 cells, SB 203580 5 μM
  protective efficacy of tumour vaccine (tumour volumes): enhances
Bone marrow-derived DC [7]
  CpG-induced IL-10 production by dendritic cells: reverses
  IL-12 production by dendritic cells: enhancing
  IL-23 production: not affected
Spleen mononuclear cells
  IFN-gamma responses: enhanced
  IL-10 responses: reduced
[3]
  induction of IFN-gamma-secreting T cells (Th1) in vivo: enhanced
  induction of IL-10 secreting T cells in vivo: suppressing
[8]
  induction of IFN-gamma-secreting T cells: enhanced
  induction of IL-10 secreting T cells: suppressed
Bordetella pertussis
  protective efficacy against B. pertussis challenge: significantly enhances
[4]; DC treated with heat shocked and irradiated B16 cells 4 hours, CpG 5 μg, SB 203580 5 μM
  CpG-induced PGE2 production by dendritic cells: reverses
Bone marrow-derived DC [9]
  IL-10 production from CpG-ODN- or LPS-stimulated DC: inhibited
  IL-12p70 production from TLR ligand-stimulated DC: enhanced
IL-1 beta in lungs
  local IL-1 beta in the lungs: enhanced

## N#CC(=C(/N)Sc1ccccc1N)/C(C#N)=C(\N)Sc1ccccc1N [U0126]
[3]
  induction of IFN-gamma-secreting T cells (Th1) in vivo: suppressed
  induction of IL-10 secreting T cells in vivo: suppressed
[4]; [14]
  CpG-induced PGE2 production by dendritic cells: reverses
Bone marrow-derived DC [9]; data not shown
  enhancement of IL-12p70 production in DC from IL-10−/− mice: retained
Bone marrow-derived DC [9]
  IL-10 production from CpG-ODN- or LPS-stimulated DC: suppressed
  IL-12p70 production from TLR ligand-stimulated DC: enhanced
ERK
  TLR-ligand induced ERK phosphorylation: inhibited

## Flagellin
[10]
  IL-10 production from DC: induced production
  IL-12p40 production from DC: induced production
  IL-12p70 production from DC: induced production

## Pam3CSK4
[10]
  IL-10 production from DC: induced production
  IL-12p40 production from DC: induced production
  IL-12p70 production from DC: induced production

## lipopolysaccharide [LPS]
[11]
  KLH-specific IFN-gamma production: high concentrations
  KLH-specific IL-4 production: low or undetectable
[10]
  IL-10 production from DC: induced production
  IL-12p40 production from DC: induced production
  IL-12p70 production from DC: induced production
ERK; LPS 100 ng/ml, 0.5-12 h
  time for which LPS-induced ERK phosphorylation was still evident: up to 8 hours
  time of maximal LPS-induced ERK phosphorylation: 30 min
